Tests used:
Experiment in all cases: normalised response (% of control), CellTiter-Glo; higher = more viable cells (100 = DMSO, 0 = benzethonium chloride kill control)
Conditions in all cases: incubation time: 72 h
[1] = tested on: Hs578T
Procedure, shortened: (§1)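 The table gives the normalised signal for a single concentration in each entry. Breast cancer cell lines were seeded (20 µl suspension) into 384-well plates holding compound at 5 concentrations in 10-fold steps over a compound-specific 10,000-fold range and incubated 72 h, then read for CellTox Green fluorescence (485/520 nm) and CellTiter-Glo luminescence. Normalisation on each plate used 0.1 % DMSO (100) and a positive kill control (0).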

[2] = tested on: HCC1599
Procedure, shortened: as §1

[3] = tested on: BT-474
Procedure, shortened: as §1

[4] = tested on: HCC1937
Procedure, shortened: as §1

[5] = tested on: HCC1143
Procedure, shortened: as §1

[6] = tested on: CAL-51
Procedure, shortened: as §1

[7] = tested on: MDA-MB-453
Procedure, shortened: as §1

[8] = tested on: MDA-MB-468
Procedure, shortened: as §1

[9] = tested on: DU-4475
Procedure, shortened: as §1

[10] = tested on: MCF-10A
Procedure, shortened: as §1

[11] = tested on: MDA-MB-436
Procedure, shortened: as §1

[12] = tested on: HDQ-P1
Procedure, shortened: as §1

[13] = tested on: MFM-223
Procedure, shortened: as §1

[14] = tested on: MDA-MB-231
Procedure, shortened: as §1

CCCC(CCC)C(=O)O [Valproic acid] (10000 nM)
normalised response [1]: 99.3%
normalised response [2]: 87.8%
normalised response [3]: 102%
normalised response [4]: 95.9%
normalised response [5]: 108%
normalised response [6]: 95.9%
normalised response [7]: 93.7%
normalised response [8]: 95.3%
normalised response [9]: 98.2%
normalised response [10]: 106%
normalised response [11]: 105%
normalised response [12]: 102%
normalised response [13]: 96.1%
normalised response [14]: 103%

Reference: the supplement of paper PMC4862054
